Assay results as given in ChEMBL document CHEMBL1201862, “PubChem BioAssay data set” (2004).
Calls of active or inactive are those of the source.

How the values were obtained:
[1] = biological target: T1, Apoptotic protease-activating factor 1 (Homo sapiens, UniProt O14727); assay: SAR analysis of small molecule Activators of Apaf-1 in a Fluorescent assay - set 2.; assay type: functional; details: read-out: EC50_Mean
T1 sequence (O14727 whole entry): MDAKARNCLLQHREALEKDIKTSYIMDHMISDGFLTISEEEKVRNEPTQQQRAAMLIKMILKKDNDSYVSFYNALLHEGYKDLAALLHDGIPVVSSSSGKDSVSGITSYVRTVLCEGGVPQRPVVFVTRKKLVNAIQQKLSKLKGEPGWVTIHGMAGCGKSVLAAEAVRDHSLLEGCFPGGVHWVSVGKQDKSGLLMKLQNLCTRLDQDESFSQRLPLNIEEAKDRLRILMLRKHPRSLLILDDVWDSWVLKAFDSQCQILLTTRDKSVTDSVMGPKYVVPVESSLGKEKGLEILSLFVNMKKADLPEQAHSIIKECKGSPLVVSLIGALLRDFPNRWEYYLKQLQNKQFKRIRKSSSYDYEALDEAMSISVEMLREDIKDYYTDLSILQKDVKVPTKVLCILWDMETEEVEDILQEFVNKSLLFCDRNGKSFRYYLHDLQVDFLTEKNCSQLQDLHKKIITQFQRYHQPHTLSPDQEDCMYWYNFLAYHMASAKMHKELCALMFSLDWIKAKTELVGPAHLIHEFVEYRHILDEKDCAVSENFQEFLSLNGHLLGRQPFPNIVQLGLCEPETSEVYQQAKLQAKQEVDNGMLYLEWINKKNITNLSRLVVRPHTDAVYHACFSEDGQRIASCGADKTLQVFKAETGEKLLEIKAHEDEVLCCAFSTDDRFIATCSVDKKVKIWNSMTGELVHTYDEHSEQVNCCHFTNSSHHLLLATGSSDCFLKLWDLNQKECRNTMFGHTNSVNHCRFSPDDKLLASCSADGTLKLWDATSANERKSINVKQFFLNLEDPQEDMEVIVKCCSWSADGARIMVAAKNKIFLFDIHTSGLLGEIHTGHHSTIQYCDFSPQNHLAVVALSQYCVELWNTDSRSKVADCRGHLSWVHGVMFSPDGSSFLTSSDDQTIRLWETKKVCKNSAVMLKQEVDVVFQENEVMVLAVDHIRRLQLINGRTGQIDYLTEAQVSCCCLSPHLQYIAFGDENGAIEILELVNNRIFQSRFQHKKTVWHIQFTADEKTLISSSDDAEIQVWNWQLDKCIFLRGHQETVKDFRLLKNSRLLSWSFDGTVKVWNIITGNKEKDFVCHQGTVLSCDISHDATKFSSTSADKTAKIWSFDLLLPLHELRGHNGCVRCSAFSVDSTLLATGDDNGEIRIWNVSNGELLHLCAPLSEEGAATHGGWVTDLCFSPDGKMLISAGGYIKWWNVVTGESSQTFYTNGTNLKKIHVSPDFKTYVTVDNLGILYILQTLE

[2] = SAR analysis of small molecule activators of Apaf-1 using a LZ-Caspase-9/Caspase-3 Fluorescent Selectivity assay - Set 2.; assay type: functional; details: read-out: EC50_Mean
[3] = control 3'UTR Renilla luciferase suppression, dose response, counter-screen for Shn3 inhibitor project, cell-based, Clone20-Shn3RL, cherry-picked (AID 624133); assay type: functional
[4] = microbe, parasite or virus in culture; assay type: functional; details: Mycobacterium tuberculosis
[5] = biological target: Sphingosine 1-phosphate receptor 1 (Homo sapiens, UniProt P21453); assay type: functional;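 also: Tango beta-arrestin reporter U2OS cells stimulated with S1P near its EC80; inhibitor potency meaning antagonism of receptor activation by the natural agonist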
Sequence of Sphingosine 1-phosphate receptor 1 (P21453 whole entry): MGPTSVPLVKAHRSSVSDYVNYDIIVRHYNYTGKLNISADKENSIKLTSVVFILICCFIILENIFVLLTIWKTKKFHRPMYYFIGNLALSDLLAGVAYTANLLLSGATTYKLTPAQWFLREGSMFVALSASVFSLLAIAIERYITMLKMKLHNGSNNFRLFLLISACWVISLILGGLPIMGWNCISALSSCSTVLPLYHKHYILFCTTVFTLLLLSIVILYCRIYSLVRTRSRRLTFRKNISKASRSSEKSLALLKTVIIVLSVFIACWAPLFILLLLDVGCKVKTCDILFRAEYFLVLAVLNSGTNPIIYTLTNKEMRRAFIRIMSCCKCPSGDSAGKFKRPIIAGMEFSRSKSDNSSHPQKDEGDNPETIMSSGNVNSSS

[6] = Shn3 3'UTR reporter inhibitors, dose response, cell-based, Clone20 osteoblasts, firefly luciferase, cherry-picked (AID 624132); assay type: functional;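 also: firefly luciferase luminescence from reporter carrying the Shn3 3'UTR in osteoblasts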
Protein RecA = biological target: T2, Protein RecA (Mycobacterium tuberculosis, UniProt P9WHJ3); assay: Fluorescence Cell-Free Homogeneous Dose Retest to Identify Inhibitors of RecA-Intein Splicing Activity. [Related pubchem assays (depositor defined):AID2097, AID2223, AID489010, AID492950]; assay type: functional
T2 sequence (P9WHJ3 whole entry): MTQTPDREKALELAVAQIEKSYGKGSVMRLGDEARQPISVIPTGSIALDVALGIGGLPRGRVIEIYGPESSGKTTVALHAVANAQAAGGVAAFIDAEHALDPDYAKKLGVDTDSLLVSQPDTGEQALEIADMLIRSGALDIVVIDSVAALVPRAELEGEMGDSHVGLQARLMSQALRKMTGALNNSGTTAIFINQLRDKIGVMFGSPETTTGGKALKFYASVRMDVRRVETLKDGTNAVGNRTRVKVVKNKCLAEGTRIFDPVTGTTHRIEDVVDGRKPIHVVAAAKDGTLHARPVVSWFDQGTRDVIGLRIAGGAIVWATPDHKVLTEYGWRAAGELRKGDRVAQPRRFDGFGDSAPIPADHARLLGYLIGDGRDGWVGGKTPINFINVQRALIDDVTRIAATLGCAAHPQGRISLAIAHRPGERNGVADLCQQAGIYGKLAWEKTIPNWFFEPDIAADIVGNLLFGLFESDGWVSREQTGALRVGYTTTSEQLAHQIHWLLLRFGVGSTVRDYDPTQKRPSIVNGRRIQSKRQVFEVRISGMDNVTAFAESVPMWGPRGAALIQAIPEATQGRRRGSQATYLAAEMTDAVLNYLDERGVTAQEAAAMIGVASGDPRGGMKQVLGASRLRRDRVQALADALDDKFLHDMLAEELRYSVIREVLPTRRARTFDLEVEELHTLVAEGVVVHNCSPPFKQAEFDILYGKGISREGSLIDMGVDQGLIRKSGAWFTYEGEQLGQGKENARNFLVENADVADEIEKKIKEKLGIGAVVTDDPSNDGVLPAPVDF

[7] = inhibitors of control Renilla luciferase reporter, dose response, counter-screen for Shn3 3'UTR targeting project, Clone20-Shn3RL cells, dual-Glo, cherry-pick, set 2 (AID 720724); assay type: functional, cell-based; details: Dual-Go Shn3RL
[8] = biological target: T3, Sphingosine 1-phosphate receptor 4 (Homo sapiens, UniProt O95977); assay: Fluorescence dose response cell-based high throughput screening assay for antagonists of the Sphingosine 1-Phosphate Receptor 4 (S1P4). [Related pubchem assays: 1524 (Confirmation in triplicates.), 1510 (Primary screen.)]; assay type: functional
T3 sequence (O95977 whole entry): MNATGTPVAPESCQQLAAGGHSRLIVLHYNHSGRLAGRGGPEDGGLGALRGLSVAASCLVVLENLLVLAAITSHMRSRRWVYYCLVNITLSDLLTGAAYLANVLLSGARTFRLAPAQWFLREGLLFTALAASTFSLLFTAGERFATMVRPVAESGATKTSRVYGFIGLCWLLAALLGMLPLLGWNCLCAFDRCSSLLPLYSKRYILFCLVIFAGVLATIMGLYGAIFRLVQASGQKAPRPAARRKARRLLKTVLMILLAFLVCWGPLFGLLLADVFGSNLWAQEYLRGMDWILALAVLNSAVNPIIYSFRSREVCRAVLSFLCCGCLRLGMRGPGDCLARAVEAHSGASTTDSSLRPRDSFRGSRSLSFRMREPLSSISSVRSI

[9] = HepG2 cell cytotoxicity, dose response, cytotoxicity control for Shn3 inhibitor project, CellTiter-Glo, cherry-picked (AID 624134); assay type: functional, cell-based
Paired box protein Pax-8 = Paired box protein Pax-8 (Homo sapiens, UniProt Q06710); assay: inhibitors of PAX8-driven TPO luciferase reporter, dose response, RMG-I cells, cherry-pick (AID 687027); assay type: functional, cell-based;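 also: luciferase reporter driven by Pax8 target thyroperoxidase promoter measured by SteadyGlo luminescence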
Sequence of Paired box protein Pax-8 (Q06710 whole entry): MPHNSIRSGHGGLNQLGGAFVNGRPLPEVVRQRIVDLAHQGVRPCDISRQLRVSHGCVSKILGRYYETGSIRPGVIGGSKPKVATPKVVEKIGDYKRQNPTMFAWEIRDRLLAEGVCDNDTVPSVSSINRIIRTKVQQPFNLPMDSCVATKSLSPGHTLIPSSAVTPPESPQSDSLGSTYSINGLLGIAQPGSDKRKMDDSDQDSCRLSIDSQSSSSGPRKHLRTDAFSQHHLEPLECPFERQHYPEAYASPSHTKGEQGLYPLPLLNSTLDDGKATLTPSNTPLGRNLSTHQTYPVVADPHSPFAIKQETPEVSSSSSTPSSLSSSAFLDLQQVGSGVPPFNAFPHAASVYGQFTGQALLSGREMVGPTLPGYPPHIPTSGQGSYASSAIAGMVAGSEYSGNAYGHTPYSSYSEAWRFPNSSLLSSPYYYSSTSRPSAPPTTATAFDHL

[10] = inhibitors of intracellular T. cruzi replication, confirmation, NIH3T3 host cells, beta-gal luminescence (AID 2044); assay type: functional, cell-based;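 also: intracellular parasites grown in NIH/3T3 mouse fibroblasts as host cells; luminescent beta-galactosidase reporter signal from transgenic T. cruzi replicating inside host cells; inhibitors lower the luminescence signal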
[11] = C. albicans growth with fluconazole, confirmation, fluorescence, retest (AID 2467); assay type: functional, cell-based
[12] = reduction of endogenous Shn3 mRNA, dose response, qPCR, Clone20 cells, cherry-pick (AID 743415); assay type: functional, cell-based
[13] = NIH-3T3 fibroblast cytotoxicity, dose response, cytotoxicity control, cell-based, fluorescence, Alamar Blue, secondary assay (AID 2327); assay type: functional;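 also: NIH-3T3 mouse fibroblasts cultured with fluconazole at 8 µg/mL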
[14] = cytotoxicity toward NIH3T3 fibroblasts, dose response, counter-screen, cell-based, ATP luminescence, mouse fibroblasts (AID 2010); assay type: functional;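 also: cells exposed to compound for about 90 hours before reading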
[15] = A Cell Based Secondary Assay to Explore Cytotoxicity in HepG2 Cells of Compounds that Modulate Mycobacterium tuberculosis in Media Containing Glycerol versus Media without Glycerol (2).; assay type: functional
[16] = reduction of Shn3 3'UTR firefly luciferase signal, dose response, Schnurri-3 inhibitor project, cell-based, Clone20 osteoblasts, cherry-pick, set 2 (AID 720490); assay type: functional;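 also: actives lower the luminescence signal as inhibitors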
[17] = A Cell Based Secondary Assay to Explore Cytotoxicity in THP-1 Cells of Compounds that Modulate Mycobacterium tuberculosis in Media Containing Glycerol versus Media without Glycerol (2).; assay type: functional
[18] = biological target: T4, Replicative DNA helicase DnaB (Mycobacterium tuberculosis, UniProt P9WMR3); assay: DnaB intein splicing inhibitors, dose response, biochemical, cell-free fluorescence (AID 449749); assay type: functional
T4 sequence (P9WMR3 whole entry): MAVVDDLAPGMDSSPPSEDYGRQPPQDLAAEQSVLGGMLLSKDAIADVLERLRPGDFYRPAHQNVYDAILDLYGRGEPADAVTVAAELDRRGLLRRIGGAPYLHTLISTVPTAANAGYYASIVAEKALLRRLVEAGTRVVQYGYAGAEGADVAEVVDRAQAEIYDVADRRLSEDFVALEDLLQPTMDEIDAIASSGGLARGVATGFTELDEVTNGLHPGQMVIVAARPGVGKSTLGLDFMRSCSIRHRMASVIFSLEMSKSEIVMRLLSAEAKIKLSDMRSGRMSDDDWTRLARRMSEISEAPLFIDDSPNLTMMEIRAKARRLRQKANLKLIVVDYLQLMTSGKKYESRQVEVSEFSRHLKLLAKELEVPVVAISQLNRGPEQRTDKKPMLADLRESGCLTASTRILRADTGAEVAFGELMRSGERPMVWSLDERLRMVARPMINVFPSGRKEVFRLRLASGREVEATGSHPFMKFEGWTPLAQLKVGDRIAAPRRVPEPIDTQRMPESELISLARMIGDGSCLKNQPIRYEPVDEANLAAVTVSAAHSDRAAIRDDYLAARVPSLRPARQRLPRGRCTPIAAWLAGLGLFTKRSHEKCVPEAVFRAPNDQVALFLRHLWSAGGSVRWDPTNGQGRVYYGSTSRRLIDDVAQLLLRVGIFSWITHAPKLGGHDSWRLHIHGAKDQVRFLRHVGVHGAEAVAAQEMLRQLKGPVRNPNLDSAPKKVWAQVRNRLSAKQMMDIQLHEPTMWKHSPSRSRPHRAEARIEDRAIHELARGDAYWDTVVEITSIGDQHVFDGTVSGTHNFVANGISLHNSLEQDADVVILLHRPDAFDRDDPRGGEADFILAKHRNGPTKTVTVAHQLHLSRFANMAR

[19] = Fluorescence-based cell-based high throughput dose response assay for inhibitors of the interaction of nucleotide-binding oligomerization domain containing 2 (NOD2) and the receptor-interacting serine-threonine kinase 2 (RIPK2).; assay type: functional; details: Homo sapiens
[20] = Vero cell cytotoxicity, cytotoxicity control for M. tuberculosis inhibitor project, purified and synthesized samples, set 3 (AID 504684); assay type: functional
[21] = biological target: Cell division cycle 7-related protein kinase (Homo sapiens, UniProt O00311); assay type: functional;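 also: value obtained from a kinome-wide kinase panel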
Sequence of Cell division cycle 7-related protein kinase (O00311 whole entry): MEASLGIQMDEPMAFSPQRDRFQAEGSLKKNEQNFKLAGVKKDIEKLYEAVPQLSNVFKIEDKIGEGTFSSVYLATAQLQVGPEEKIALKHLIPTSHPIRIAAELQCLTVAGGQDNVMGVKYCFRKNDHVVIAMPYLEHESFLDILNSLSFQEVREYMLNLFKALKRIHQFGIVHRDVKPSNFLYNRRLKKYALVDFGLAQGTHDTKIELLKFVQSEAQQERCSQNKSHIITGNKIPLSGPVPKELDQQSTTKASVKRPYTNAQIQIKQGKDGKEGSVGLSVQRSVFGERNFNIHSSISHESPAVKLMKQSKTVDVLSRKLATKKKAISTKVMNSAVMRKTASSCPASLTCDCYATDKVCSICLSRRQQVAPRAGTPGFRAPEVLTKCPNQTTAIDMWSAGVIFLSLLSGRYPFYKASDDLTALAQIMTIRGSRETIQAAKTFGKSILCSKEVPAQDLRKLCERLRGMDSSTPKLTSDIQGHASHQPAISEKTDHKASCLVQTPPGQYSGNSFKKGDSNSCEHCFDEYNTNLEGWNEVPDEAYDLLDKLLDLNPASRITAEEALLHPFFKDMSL

[22] = biological target: ALK tyrosine kinase receptor (Homo sapiens, UniProt Q9UM73); assay type: functional;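 also: ALK tested as one member of a kinase panel screen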
Sequence of ALK tyrosine kinase receptor (Q9UM73 whole entry): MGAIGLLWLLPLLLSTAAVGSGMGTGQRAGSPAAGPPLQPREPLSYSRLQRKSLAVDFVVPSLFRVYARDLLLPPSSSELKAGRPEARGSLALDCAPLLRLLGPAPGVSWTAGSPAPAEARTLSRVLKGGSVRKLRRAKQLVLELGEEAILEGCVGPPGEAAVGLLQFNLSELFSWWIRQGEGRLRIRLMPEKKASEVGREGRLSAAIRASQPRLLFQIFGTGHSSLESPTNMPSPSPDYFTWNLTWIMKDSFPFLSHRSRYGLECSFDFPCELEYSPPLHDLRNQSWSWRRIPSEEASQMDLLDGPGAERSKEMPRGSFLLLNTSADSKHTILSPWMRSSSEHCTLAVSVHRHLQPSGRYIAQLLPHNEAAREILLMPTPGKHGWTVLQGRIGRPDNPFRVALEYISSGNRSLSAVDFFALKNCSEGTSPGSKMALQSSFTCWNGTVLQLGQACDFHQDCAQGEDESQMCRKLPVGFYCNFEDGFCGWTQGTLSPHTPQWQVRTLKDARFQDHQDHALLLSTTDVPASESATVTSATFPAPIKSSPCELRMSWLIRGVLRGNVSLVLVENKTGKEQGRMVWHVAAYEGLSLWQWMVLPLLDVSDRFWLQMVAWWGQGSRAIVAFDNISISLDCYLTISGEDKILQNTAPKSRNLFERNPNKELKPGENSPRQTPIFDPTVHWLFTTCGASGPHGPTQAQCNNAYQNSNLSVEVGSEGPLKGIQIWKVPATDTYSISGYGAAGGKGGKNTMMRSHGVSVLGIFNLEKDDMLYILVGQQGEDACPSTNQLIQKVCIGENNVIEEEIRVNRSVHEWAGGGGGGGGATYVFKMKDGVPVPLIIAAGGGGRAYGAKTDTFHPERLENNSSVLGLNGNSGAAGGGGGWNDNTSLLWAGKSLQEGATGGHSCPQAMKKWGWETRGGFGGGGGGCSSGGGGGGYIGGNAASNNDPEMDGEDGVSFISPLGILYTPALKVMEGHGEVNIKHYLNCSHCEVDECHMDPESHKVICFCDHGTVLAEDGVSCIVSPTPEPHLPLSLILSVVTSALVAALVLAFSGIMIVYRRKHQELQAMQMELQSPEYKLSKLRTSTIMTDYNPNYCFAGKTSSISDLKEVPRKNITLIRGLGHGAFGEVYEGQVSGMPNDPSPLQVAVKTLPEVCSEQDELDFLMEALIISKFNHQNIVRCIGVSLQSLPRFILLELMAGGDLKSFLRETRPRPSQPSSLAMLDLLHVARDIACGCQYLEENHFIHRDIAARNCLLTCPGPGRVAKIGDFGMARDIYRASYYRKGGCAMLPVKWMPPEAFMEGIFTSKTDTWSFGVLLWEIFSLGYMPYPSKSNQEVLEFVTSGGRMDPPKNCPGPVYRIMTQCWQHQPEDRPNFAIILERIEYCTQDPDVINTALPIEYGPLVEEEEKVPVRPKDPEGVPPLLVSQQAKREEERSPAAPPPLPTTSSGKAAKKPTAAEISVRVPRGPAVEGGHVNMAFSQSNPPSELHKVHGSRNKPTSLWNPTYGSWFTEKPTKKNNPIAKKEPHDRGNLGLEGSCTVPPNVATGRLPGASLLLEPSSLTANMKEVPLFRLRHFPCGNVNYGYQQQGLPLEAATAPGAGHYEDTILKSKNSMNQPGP

Aurora kinase B = Aurora kinase B (Homo sapiens, UniProt Q96GD4); assay type: functional
Sequence of Aurora kinase B (Q96GD4 whole entry): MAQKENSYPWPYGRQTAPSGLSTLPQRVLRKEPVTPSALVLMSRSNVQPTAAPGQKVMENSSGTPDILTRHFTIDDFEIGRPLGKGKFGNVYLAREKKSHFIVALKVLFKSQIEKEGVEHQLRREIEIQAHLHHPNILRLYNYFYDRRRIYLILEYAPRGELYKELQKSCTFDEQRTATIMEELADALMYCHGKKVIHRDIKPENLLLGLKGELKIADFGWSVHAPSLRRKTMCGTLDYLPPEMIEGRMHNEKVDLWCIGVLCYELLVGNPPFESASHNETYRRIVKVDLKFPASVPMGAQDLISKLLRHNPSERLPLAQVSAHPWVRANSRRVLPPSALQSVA

[23] = biological target: Vascular endothelial growth factor receptor 2 (Homo sapiens, UniProt P35968); assay type: functional
Sequence of Vascular endothelial growth factor receptor 2 (P35968 whole entry): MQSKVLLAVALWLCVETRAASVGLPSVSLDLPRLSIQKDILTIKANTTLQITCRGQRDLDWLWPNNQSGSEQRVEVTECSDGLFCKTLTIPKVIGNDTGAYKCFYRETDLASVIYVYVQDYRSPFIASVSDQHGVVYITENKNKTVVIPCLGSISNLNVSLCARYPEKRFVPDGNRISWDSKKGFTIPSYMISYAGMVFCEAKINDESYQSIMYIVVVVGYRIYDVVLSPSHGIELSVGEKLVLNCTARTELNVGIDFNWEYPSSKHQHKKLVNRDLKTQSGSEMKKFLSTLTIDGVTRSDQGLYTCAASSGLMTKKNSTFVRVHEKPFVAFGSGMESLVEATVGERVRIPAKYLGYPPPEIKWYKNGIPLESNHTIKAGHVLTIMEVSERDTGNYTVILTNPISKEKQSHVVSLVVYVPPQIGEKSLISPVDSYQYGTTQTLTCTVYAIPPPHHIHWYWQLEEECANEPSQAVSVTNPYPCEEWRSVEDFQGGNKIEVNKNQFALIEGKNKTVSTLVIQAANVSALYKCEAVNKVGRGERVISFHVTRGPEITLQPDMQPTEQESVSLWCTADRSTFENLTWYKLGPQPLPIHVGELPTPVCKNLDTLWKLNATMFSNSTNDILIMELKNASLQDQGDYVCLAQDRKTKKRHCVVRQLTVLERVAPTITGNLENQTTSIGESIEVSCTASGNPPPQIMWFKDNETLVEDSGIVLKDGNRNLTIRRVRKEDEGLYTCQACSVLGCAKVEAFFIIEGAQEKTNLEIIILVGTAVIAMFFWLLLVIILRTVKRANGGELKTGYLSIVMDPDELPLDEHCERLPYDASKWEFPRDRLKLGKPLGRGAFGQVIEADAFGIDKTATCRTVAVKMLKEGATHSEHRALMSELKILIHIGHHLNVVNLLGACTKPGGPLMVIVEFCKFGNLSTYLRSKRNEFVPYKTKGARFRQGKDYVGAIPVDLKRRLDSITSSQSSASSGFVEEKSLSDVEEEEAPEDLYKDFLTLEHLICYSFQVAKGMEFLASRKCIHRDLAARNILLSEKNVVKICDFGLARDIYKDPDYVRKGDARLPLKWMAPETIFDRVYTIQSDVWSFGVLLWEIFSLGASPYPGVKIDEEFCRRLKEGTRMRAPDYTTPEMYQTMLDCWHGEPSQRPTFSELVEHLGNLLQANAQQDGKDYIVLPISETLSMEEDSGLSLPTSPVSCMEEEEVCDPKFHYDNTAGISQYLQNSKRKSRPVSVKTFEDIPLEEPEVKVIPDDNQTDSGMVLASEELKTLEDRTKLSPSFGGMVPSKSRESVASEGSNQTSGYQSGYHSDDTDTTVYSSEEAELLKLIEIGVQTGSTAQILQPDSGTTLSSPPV

Aurora kinase A = Aurora kinase A (Homo sapiens, UniProt O14965); assay type: functional;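 also: value from the Navigating the Kinome kinase panel profiling, panel entry STK6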

O=C(O)C1CC(c2c(F)cccc2Cl)=NO1 (configuration not stated)
EC50 [1]: > 100 µM (inactive)
EC50 [2]: > 100 µM (inactive)

CCOC(=O)c1ccc(NC(=O)Cn2ncc(Cl)c(Cl)c2=O)cc1
AC50 [3]: 12.1 µM (active)
CC50 [4]: 6.68 µM (active)
IC50 [5]: 9.77 µM (active)
AC50 [6]: 2.32 µM (active)
EC50 (Protein RecA): 3.77 µM (active)
AC50 [7]: 5.4 µM (active)
IC50 [8]: 1.47 µM (active)
AC50 [9]: 46 µM (active)
AC50 (Paired box protein Pax-8): 6.64 µM (active)
EC50 [10]: 2.06 µM (active)
EC50 [11]: 0.582 µM (active)
AC50 [12]: 3.72 µM (active)
EC50 [13]: 2.69 µM (inconclusive)
EC50 [14]: 1.96 µM (active)
CC50 [15]: 8.45 µM (active)
AC50 [16]: 3.69 µM (active)
CC50 [17]: 1.62 µM (active)
AC50 [18]: 14.1 µM (active)
IC50 [19]: 1.77 µM (active)
CC50 [20]: 3.21 µM (active)

OCCc1ccc(Nc2ncnc3[nH]cc(-c4ccccc4)c23)cc1
Ki [21]: 0.0794 µM (active)
Ki [22]: 3.98 µM (active)

CS(=O)(=O)Nc1ccc2c(c1)C(=NO)c1ccccc1-2
Ki (Aurora kinase B): 0.0398 µM (active)
Ki [23]: 0.794 µM (active)
Ki (Aurora kinase A): 0.398 µM (active)
